For one compound, solubility in ethanol results are on record in US20080031935A1, “Cholinesterase Inhibitors In Liposomes And Their Production And Use” (priority 2004, published 2008).

The data set is described as follows: Solubility of galantamine base in ethanol. The format is physicochemical.

For the compound `COc1ccc2c3c1O[C@H]1C[C@@H](O)C=C[C@@]31CCN(C)C2` [galantamine base, galantamine], the solubility in ethanol result is on record as “soluble”.
